Laboratory results as given in PubChem BioAssay AID328 (DTP/NCI, 2004).
Several values for one entry are separate records, joined by “and”; a condition that tells them apart may be missing. Equal values may be shown once. Toxic doses and inconclusive results are not listed. The calls were made as follows: active = survival T/C of 150% or more; inactive = T/C below 125% in these data.

Test system: BDF1 mice, P388 leukemia ip, median survival T/C
Test: NCI In Vivo Anticancer Drug Screen. Data for tumor model P388 Leukemia (intraperitoneal) in B6D2F1 (BDF1) mice
Conditions: endpoint: median survival time, higher = longer survival
In short: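 Compound-treated tumour-bearing mice were compared with vehicle-treated controls. Survival was recorded, and the value is the treated-group measurement divided by the control-group measurement (T/C).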

[1] = dose: 100.0 mg/kg/injection, schedule: Q04DX003 (ip), vehicle: saline with Tween-80
[2] = dose: 200.0 mg/kg/injection, schedule: Q04DX003 (ip), vehicle: saline with Tween-80
[3] = dose: 400.0 mg/kg/injection, schedule: Q04DX003 (ip), vehicle: saline with Tween-80
[4] = dose: 50.0 mg/kg/injection, schedule: Q01DX009 (ip), vehicle: Klucel (hydroxypropylcellulose) (HPC)
[5] = dose: 100.0 mg/kg/injection, schedule: Q01DX009 (ip), vehicle: saline with Tween-80
[6] = dose: 200.0 mg/kg/injection, schedule: Q01DX009 (ip), vehicle: saline with Tween-80
[7] = dose: 400.0 mg/kg/injection, schedule: Q01DX009 (ip), vehicle: saline with Tween-80
[8] = dose: 100.0 mg/kg/injection, schedule: Q04DX003 (ip), vehicle: Klucel (hydroxypropylcellulose) (HPC)
[9] = dose: 200.0 mg/kg/injection, schedule: Q04DX003 (ip), vehicle: Klucel (hydroxypropylcellulose) (HPC)
[10] = dose: 25.0 mg/kg/injection, schedule: Q01DX009 (ip), vehicle: water
[11] = dose: 50.0 mg/kg/injection, schedule: Q01DX009 (ip), vehicle: water
[12] = dose: 100.0 mg/kg/injection, schedule: Q04DX003 (ip), vehicle: water
[13] = dose: 200.0 mg/kg/injection, schedule: Q01DX009 (ip), vehicle: water
[14] = dose: 200.0 mg/kg/injection, schedule: Q04DX003 (ip), vehicle: water
[15] = dose: 400.0 mg/kg/injection, schedule: Q01DX009 (ip), vehicle: water
[16] = dose: 400.0 mg/kg/injection, schedule: Q04DX003 (ip), vehicle: water
[17] = dose: 100.0 mg/kg/injection, schedule: Q01DX009 (ip), vehicle: water

Measured: T/C

COn1nnc2c(Cl)c(Cl)ccc21
inactive: [1] 95 % of control | [2] 92 % of control | [3] 100 % of control

CCC(=O)O[C@H]1CC(=O)N(C)c2cc(cc(OC)c2Cl)C/C(C)=C/C=C[C@@H](OC)[C@@]2(O)C[C@H](OC(=O)N2)[C@@H](C)[C@H]2O[C@@]12C
inactive: dose: 0.9 micrograms/kg/injection, schedule: Q01DX009 (ip), vehicle: saline + alcohol 110 % of control
active: dose: 0.8 micrograms/kg/injection, schedule: Q01DX009 (ip), vehicle: saline + alcohol 170 % of control | dose: 1.5 micrograms/kg/injection, schedule: Q01DX009 (ip), vehicle: saline + alcohol 173 % of control | dose: 3.1 micrograms/kg/injection, schedule: Q01DX009 (ip), vehicle: saline + alcohol 168 % of control | dose: 6.2 micrograms/kg/injection, schedule: Q01DX009 (ip), vehicle: saline + alcohol 170 % of control | dose: 12.5 micrograms/kg/injection, schedule: Q01DX009 (ip), vehicle: saline + alcohol 163 % of control and 183 % of control | dose: 25.0 micrograms/kg/injection, schedule: Q01DX009 (ip), vehicle: saline + alcohol 258 % of control and 153 % of control | dose: 50.0 micrograms/kg/injection, schedule: Q01DX009 (ip), vehicle: saline + alcohol 198 % of control and 223 % of control

c1ccc(C2C3(c4ccccc4)C4(c5ccccc5)OC(c5ccccc5)(c5ccccc54)C23c2ccccc2)cc1 (configuration not stated)
inactive: [4] 91 % of control | dose: 100.0 mg/kg/injection, schedule: Q01DX009 (ip), vehicle: Klucel (hydroxypropylcellulose) (HPC) 103 % of control | dose: 200.0 mg/kg/injection, schedule: Q01DX009 (ip), vehicle: Klucel (hydroxypropylcellulose) (HPC) 92 % of control

O=[N+]([O-])c1ccc(/C=[N+](\[O-])CCO)cc1
inactive: dose: 6.25 mg/kg/injection, schedule: Q01DX009 (ip), vehicle: saline with Tween-80 101 % of control | dose: 12.5 mg/kg/injection, schedule: Q01DX009 (ip), vehicle: saline with Tween-80 101 % of control | dose: 25.0 mg/kg/injection, schedule: Q01DX009 (ip), vehicle: saline with Tween-80 100 % of control

CC1(C)CC(=O)C=C(OCCc2ccccc2)C1
inactive: [5] 100 % of control | [6] 109 % of control | [7] 118 % of control

CN(C)CCCN1CCC2(CC[C@H]3CCCC[C@@H]3C2)CC1
inactive: dose: 18.75 mg/kg/injection, schedule: Q04DX003 (ip), vehicle: saline 100 % of control | dose: 37.5 mg/kg/injection, schedule: Q04DX003 (ip), vehicle: saline 109 % of control | dose: 75.0 mg/kg/injection, schedule: Q04DX003 (ip), vehicle: saline 113 % of control

N#CC(C#N)=Cc1cccc2ccccc12
inactive: [8] 104 % of control | [9] 100 % of control | dose: 400.0 mg/kg/injection, schedule: Q04DX003 (ip), vehicle: Klucel (hydroxypropylcellulose) (HPC) 113 % of control

NC(=O)CC(NC(=O)OCc1ccccc1)C(=O)OCc1ccccc1 (configuration not stated)
inactive: dose: 50.0 mg/kg/injection, schedule: Q01DX009 (ip), vehicle: saline with Tween-80 109 % of control | [5] 100 % of control | [1] 99 % of control | [6] 93 % of control | [2] 102 % of control | [7] 103 % of control | [3] 90 % of control

CC=C(/C(=C/C)c1ccc(O)cc1)c1ccc(O)cc1
inactive: dose: 66.0 mg/kg/injection, schedule: Q01DX009 (ip), vehicle: saline with Tween-80 100 % of control | [5] 109 % of control | dose: 150.0 mg/kg/injection, schedule: Q01DX009 (ip), vehicle: saline with Tween-80 118 % of control

Clc1ccc(-c2cc(=[N+]3CCC4(CC3)SSC3(CC[N+](=c5cc(-c6ccc(Cl)cc6)ss5)CC3)S4)ss2)cc1 (configuration not stated)
inactive: [10] 110 % of control | dose: 25.0 mg/kg/injection, schedule: Q04DX003 (ip), vehicle: water 94 % of control | [11] 121 % of control | dose: 50.0 mg/kg/injection, schedule: Q04DX003 (ip), vehicle: water 101 % of control | [12] 92 % of control | [13] 121 % of control | [14] 97 % of control | [15] 121 % of control | [16] 98 % of control

NC(C(=O)O)C(O)c1cnc[nH]1 (configuration not stated)
inactive: [10] 101 % of control | [11] 96 % of control | [17] 97 % of control | [13] 93 % of control | [15] 97 % of control

CC(Cc1cccs1)N=Cc1cc(Br)ccc1O (configuration not stated)
inactive: dose: 100.0 mg/kg/injection, schedule: Q01DX001 (ip), vehicle: saline with Tween-80 100 % of control | dose: 200.0 mg/kg/injection, schedule: Q01DX001 (ip), vehicle: saline with Tween-80 111 % of control | dose: 400.0 mg/kg/injection, schedule: Q01DX001 (ip), vehicle: saline with Tween-80 109 % of control

NC(Cc1ccc(O)cc1)C(=O)N/N=C/c1ccc(N(CCCl)CCCl)cc1 (configuration not stated)
inactive: dose: 18.0 mg/kg/injection, schedule: Q04DX003 (ip), vehicle: Klucel (hydroxypropylcellulose) (HPC) 108 % of control | dose: 26.0 mg/kg/injection, schedule: Q04DX003 (ip), vehicle: Klucel (hydroxypropylcellulose) (HPC) 116 % of control
active: dose: 60.0 mg/kg/injection, schedule: Q04DX003 (ip), vehicle: Klucel (hydroxypropylcellulose) (HPC) 165 % of control | dose: 90.0 mg/kg/injection, schedule: Q04DX003 (ip), vehicle: Klucel (hydroxypropylcellulose) (HPC) 169 % of control | [8] 165 % of control | dose: 133.0 mg/kg/injection, schedule: Q04DX003 (ip), vehicle: Klucel (hydroxypropylcellulose) (HPC) 170 % of control | [9] 192 % of control and 204 % of control | dose: 300.0 mg/kg/injection, schedule: Q04DX003 (ip), vehicle: Klucel (hydroxypropylcellulose) (HPC) 166 % of control

C=C(Br)CNCCCCCC
inactive: dose: 4.68 mg/kg/injection, schedule: Q04DX003 (ip), vehicle: Klucel (hydroxypropylcellulose) (HPC) 95 % of control | dose: 9.37 mg/kg/injection, schedule: Q04DX003 (ip), vehicle: Klucel (hydroxypropylcellulose) (HPC) 100 % of control | dose: 12.5 mg/kg/injection, schedule: Q01DX009 (ip), vehicle: Klucel (hydroxypropylcellulose) (HPC) 109 % of control | dose: 18.75 mg/kg/injection, schedule: Q04DX003 (ip), vehicle: Klucel (hydroxypropylcellulose) (HPC) 108 % of control | dose: 25.0 mg/kg/injection, schedule: Q01DX009 (ip), vehicle: Klucel (hydroxypropylcellulose) (HPC) 118 % of control | dose: 37.5 mg/kg/injection, schedule: Q04DX003 (ip), vehicle: Klucel (hydroxypropylcellulose) (HPC) 86 % of control | [4] 113 % of control

CCOC(=O)N=C=O
inactive: [17] 114 % of control | [12] 96 % of control | [13] 110 % of control | [14] 99 % of control | [16] 107 % of control

CC(C)(CC(=O)O)c1ccccc1
inactive: dose: 25.0 mg/kg/injection, schedule: Q04DX003 (ip), vehicle: saline 89 % of control and 109 % of control | dose: 50.0 mg/kg/injection, schedule: Q04DX003 (ip), vehicle: saline 104 % of control and 120 % of control | dose: 100.0 mg/kg/injection, schedule: Q04DX003 (ip), vehicle: saline 102 % of control and 106 % of control | dose: 200.0 mg/kg/injection, schedule: Q04DX003 (ip), vehicle: saline 102 % of control and 110 % of control and 113 % of control | dose: 400.0 mg/kg/injection, schedule: Q04DX003 (ip), vehicle: saline 105 % of control

CCOC(N)=O
inactive: dose: 100.0 mg/kg/injection, schedule: Q01DX009 (ip), vehicle: saline 120 % of control | dose: 200.0 mg/kg/injection, schedule: Q01DX009 (ip), vehicle: saline 90 % of control | dose: 400.0 mg/kg/injection, schedule: Q01DX009 (ip), vehicle: saline 100 % of control | dose: 500.0 mg/kg/injection, schedule: Q01DX010 (ip), vehicle: saline 113 % of control
active: dose: 125.0 mg/kg/injection, schedule: Q01DX010 (ip), vehicle: saline 154 % of control | dose: 250.0 mg/kg/injection, schedule: Q01DX010 (ip), vehicle: saline 154 % of control

Cc1cc(-c2ccc(NC(=O)c3cccc([N+](=O)[O-])c3)c(C)c2)ccc1NC(=O)c1cccc([N+](=O)[O-])c1
inactive: dose: 50.0 mg/kg/injection, schedule: Q01DX005 (ip), vehicle: saline with Tween-80 96 % of control | dose: 100.0 mg/kg/injection, schedule: Q01DX005 (ip), vehicle: saline with Tween-80 94 % of control | dose: 200.0 mg/kg/injection, schedule: Q01DX005 (ip), vehicle: saline with Tween-80 105 % of control
